{
  "source": "patent US20240300936A1",
  "about": "(priority 2021, published 2024)",
  "note": "Where a name gives a salt, the structure may show the parent alone.",
  "data": [
    {"test_system": "HELA cells", "test": "HELA cell proliferation assay (CellTitre-Glo, 6 days)", "format": "cell-based", "settings": "Homo sapiens, 144 h; HELA cells, 6 days treatment, CellTitre-Glo; read-out: HeLa pIC50 (converted)", "units": {"IC50": "M"}, "values": [
      {"smiles": "CC(C)(Nc1nc(N)nc(-c2ccc3cn[nH]c3c2F)n1)c1ccn(C(F)F)n1", "note": "[Example 102, N2-[1-[1-(difluoromethyl)pyrazol-3-yl]-1-methyl-ethyl]-6-(7-fluoro-1H-indazol-6-yl)-1,3,5-triazine-2,4-diamine]", "IC50": "2.95e-07"},
      {"smiles": "Nc1nc(NC2(c3ccn(C(F)F)n3)CC2)nc(-c2ccc3cncn3c2)n1", "note": "[Example 35, N4-[1-[1-(Difluoromethyl)pyrazol-3-yl]cyclopropyl]-6-imidazo[1,5-a]pyridin-6-yl-1,3,5-triazine-2,4-diamine]", "IC50": "1.48e-07"},
      {"smiles": "Nc1nc(NC2(c3ccn(C(F)F)n3)CC2)nc(-c2ccc3cn[nH]c3c2)n1", "note": "[Example 22, N2-[1-[1-(Difluoromethyl)pyrazol-3-yl]cyclopropyl]-6-(1H-indazol-6-yl)-1,3,5-triazine-2,4-diamine]", "IC50": "1.35e-07"},
      {"smiles": "Cc1ccc(CNc2nc(N)nc(-c3ccc4cn[nH]c4c3)n2)c(F)c1F", "note": "[Example 88, N2-[(2,3-Difluoro-4-methyl-phenyl)methyl]-6-(1H-indazol-6-yl)-1,3,5-triazine-2,4-diamine]", "IC50": "1.29e-06"},
      {"smiles": "Nc1nc(NCc2cccc(F)c2Cl)nc(-c2ccc3cn[nH]c3c2)n1", "note": "[Example 24, N2-[(2-chloro-3-fluoro-phenyl)methyl]-6-(1H-indazol-6-yl)-1,3,5-triazine-2,4-dia mine]", "IC50": "2.88e-07"},
      {"smiles": "Cn1ncc2ccc(-c3nc(N)nc(NC4(c5ccn(C(F)F)n5)CC4)n3)cc21", "note": "[Example 32, N4-[1-[1-(Difluoromethyl)pyrazol-3-yl]cyclopropyl]-6-(1-methylindazol-6-yl)-1,3,5-triazine-2,4-diamine]", "IC50": "1.29e-06"},
      {"smiles": "CC(C)(Nc1nc(N)nc(-c2ccc3cncn3c2)n1)c1ccccn1", "note": "[Example 72, 6-imidazo[1,5-a]pyridin-6-yl-N2-[1-methyl-1-(2-pyridyl)ethyl]-1,3,5-triazine-2,4-di amine]", "IC50": "4.07e-07"},
      {"smiles": "Cc1ncc2ccc(-c3nc(N)nc(NC(C)(C)c4cccc(F)c4F)n3)cn12", "note": "[Example 39, N4-[1-(2,3-difluorophenyl)-1-methyl-ethyl]-6-(3-methylimidazo[1,5-a]pyridin-6-yl)-1,3,5-triazine-2,4-diamine]", "IC50": "4.17e-07"},
      {"smiles": "Cc1ncc2ccc(-c3nc(N)nc(NC(C)(C)c4ccn(C(F)F)n4)n3)cn12", "note": "[Example 37, N4-[1-[1-(difluoromethyl)pyrazol-3-yl]-1-methyl-ethyl]-6-(3-methylimidazo[1,5-a]pyridin-6-yl)-1,3,5-triazine-2,4-diamine]", "IC50": "3.55e-07"},
      {"smiles": "Nc1nc(NCc2ccn(C(F)F)n2)nc(-c2ccc3cncn3c2)n1", "note": "[Example 74, N2-[[1-(difluoromethyl)pyrazol-3-yl]methyl]-6-imidazo[1,5-a]pyridin-6-yl-1,3,5-tria zine-2,4-diaminediamine]", "IC50": "4.9e-07"}
    ]},
    {"test_system": "HELA cells", "test": "HELA cell proliferation assay (CellTitre-Glo, 6 days)", "format": "cell-based", "settings": "Homo sapiens, HeLa, 144 h, read-out: HeLa pIC50 (M) (converted)", "units": {"IC50": "M"}, "values": [
      {"smiles": "CC(C)(Nc1nc(N)nc(-c2ccc3cn[nH]c3c2)n1)c1cccc(C(F)(F)F)n1", "note": "[Example 4, 6-(1H-indazol-6-yl)-N2-[1-methyl-1-[6-(trifluoromethyl)-2-pyridyl]ethyl]-1,3,5-tr iazine-2,4-diamine hydrochloride]", "IC50": "1.7e-07"},
      {"smiles": "Nc1nc(-c2ccc3cn[nH]c3c2)nc(N2CCOCC2Cc2cccc(Cl)c2Cl)n1", "note": "(stereo not drawn) [Example 3, 4-[3-[(2,3-dichlorophenyl)methyl]morpholin-4-yl]-6-(1H-indazol-6-yl)-1,3,5-triaz in-2-amine hydrochloride]", "IC50": "2.95e-06"}
    ]}
  ]
}
